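Method: 48-hour compound exposure of cells in 96-well plates, five concentrations, linear interpolation of endpoints. GI50 is the concentration that inhibits growth by half. TGI is the concentration that stops growth completely.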
Key:
Assay in all cases: NCI anticancer screen, dose series, 48 h
[1] = test system: 786-0 renal
[2] = test system: A498 renal
[3] = test system: A549 NSCLC
[4] = test system: ACHN renal
[5] = test system: BT-549 breast
[6] = test system: CAKI-1 renal
[7] = test system: CCRF-CEM leukemia
[8] = test system: COLO 205 colon
[9] = test system: DU-145 prostate
[10] = test system: EKVX NSCLC
[11] = test system: HCC-2998 colon
[12] = test system: HCT-15 colon
[13] = test system: HL-60(TB) leukemia
[14] = test system: HOP-62 NSCLC
[15] = test system: HOP-92 NSCLC
[16] = test system: HS 578T breast
[17] = test system: HT29 colon
[18] = test system: IGROV1 ovarian
[19] = test system: K-562 leukemia
[20] = test system: KM12 colon
[21] = test system: LOX IMVI melanoma
[22] = test system: MCF7 breast
[23] = test system: MDA-MB-231 breast
[24] = test system: MDA-MB-435
[25] = test system: MOLT-4 leukemia
[26] = test system: NCI-H226 lung
[27] = test system: NCI-H23 lung
[28] = test system: NCI-H460 lung
[29] = test system: NCI-H522 lung
[30] = test system: NCI/ADR-RES ovarian
[31] = test system: OVCAR-3 ovarian
[32] = test system: OVCAR-4 ovarian
[33] = test system: OVCAR-5 ovarian
[34] = test system: OVCAR-8 ovarian
[35] = test system: PC-3 prostate
[36] = test system: RPMI-8226 leukemia
[37] = test system: RXF 393 renal
[38] = test system: SF-268 CNS
[39] = test system: SF-295 CNS
[40] = test system: SF-539 CNS
[41] = test system: SK-MEL-2 melanoma
[42] = test system: SK-MEL-28 melanoma
[43] = test system: SK-MEL-5 melanoma
[44] = test system: SK-OV-3 ovarian
[45] = test system: SN12C renal
[46] = test system: SNB-19 CNS
[47] = test system: SNB-75 CNS
[48] = test system: SR leukemia
[49] = test system: SW-620 colon
[50] = test system: T-47D breast
[51] = test system: TK-10 renal
[52] = test system: U251 CNS
[53] = test system: UACC-257 melanoma
[54] = test system: UACC-62 melanoma
[55] = test system: UO-31 renal
[56] = test system: HCT-116 colon
[57] = test system: M14 melanoma
[58] = test system: MALME-3M melanoma

Compound: O=[N+]([O-])c1c(Br)sc(Br)c1[N+](=O)[O-]
- GI50 [1]: 1.73 µM
- TGI [1]: 3.25 µM
- GI50 [2]: 13.2 µM
- TGI [2]: 26 µM
- GI50 [3]: 13.7 µM
- TGI [3]: 41.5 µM
- GI50 [4]: 1.64 µM
- TGI [4]: 3.19 µM
- GI50 [5]: 16.1 µM
- TGI [5]: 29.7 µM
- GI50 [6]: 1.83 µM
- TGI [6]: 3.63 µM
- GI50 [7]: 1.11 µM
- TGI [7]: 4.15 µM
- GI50 [8]: 1.57 µM
- TGI [8]: 3.38 µM
- GI50 [9]: 6.8 µM
- TGI [9]: 19.6 µM
- GI50 [10]: 9.3 µM
- TGI [10]: 23.8 µM
- GI50 [11]: 12.3 µM
- TGI [11]: 26.2 µM
- GI50 [12]: 1.59 µM
- TGI [12]: 4.48 µM
- GI50 [13]: 2.4 µM
- TGI [13]: 6.65 µM
- GI50 [14]: 3.25 µM
- TGI [14]: 11.3 µM
- GI50 [15]: 1.87 µM
- TGI [15]: 3.57 µM
- GI50 [16]: 2.59 µM
- TGI [16]: 9.53 µM
- GI50 [17]: 1.7 µM
- TGI [17]: 3.47 µM
- GI50 [18]: 1.98 µM
- TGI [18]: 5.38 µM
- GI50 [19]: 0.815 µM
- TGI [19]: 3.99 µM
- GI50 [20]: 10.1 µM
- TGI [20]: 22 µM
- GI50 [21]: 1.58 µM
- TGI [21]: 3.07 µM
- GI50 [22]: 2.2 µM
- TGI [22]: 7.65 µM
- GI50 [23]: 2.32 µM
- TGI [23]: 6.19 µM
- GI50 [24]: 2 µM
- TGI [24]: 5.28 µM
- GI50 [25]: 1.01 µM
- TGI [25]: 5.35 µM
- GI50 [26]: 3.18 µM
- TGI [26]: 13.3 µM
- GI50 [27]: 11.3 µM
- TGI [27]: 28.9 µM
- GI50 [28]: 6.67 µM
- TGI [28]: 28.1 µM
- GI50 [29]: 0.613 µM
- TGI [29]: 1.95 µM
- GI50 [30]: 3.3 µM
- TGI [30]: 23.8 µM
- GI50 [31]: 1.71 µM
- TGI [31]: 3.2 µM
- GI50 [32]: 1.85 µM
- TGI [32]: 3.62 µM
- GI50 [33]: 2.46 µM
- TGI [33]: 6.95 µM
- GI50 [34]: 2.39 µM
- TGI [34]: 7.08 µM
- GI50 [35]: 1.94 µM
- TGI [35]: 4.03 µM
- GI50 [36]: 1.91 µM
- TGI [36]: 5.54 µM
- GI50 [37]: 1.47 µM
- TGI [37]: 2.85 µM
- GI50 [38]: 12.5 µM
- TGI [38]: 25 µM
- GI50 [39]: 14.2 µM
- TGI [39]: 28.6 µM
- GI50 [40]: 2.49 µM
- TGI [40]: 6.35 µM
- GI50 [41]: 2.79 µM
- TGI [41]: 10.3 µM
- GI50 [42]: 2.01 µM
- TGI [42]: 4.54 µM
- GI50 [43]: 4.88 µM
- TGI [43]: 17.2 µM
- GI50 [44]: 14 µM
- TGI [44]: 27 µM
- GI50 [45]: 3.12 µM
- TGI [45]: 10.9 µM
- GI50 [46]: 13.4 µM
- TGI [46]: 27.9 µM
- GI50 [47]: 1.88 µM
- TGI [47]: 4.99 µM
- GI50 [48]: 0.633 µM
- TGI [48]: 11.7 µM
- GI50 [49]: 1.6 µM
- TGI [49]: 3.27 µM
- GI50 [50]: 1.84 µM
- TGI [50]: 4.38 µM
- GI50 [51]: 2.31 µM
- TGI [51]: 6.18 µM
- GI50 [52]: 2.15 µM
- TGI [52]: 5.46 µM
- GI50 [53]: 1.52 µM
- TGI [53]: 3.04 µM
- GI50 [54]: 1.87 µM
- TGI [54]: 4.68 µM
- GI50 [55]: 1.59 µM
- TGI [55]: 3.55 µM

Compound: Oc1[nH]c2ccc(Cl)cc2c1/C=c1/ccc2c(c1)N=C(c1ccc(F)cc1)N=2
- GI50 [1]: 1.8 µM
- TGI [1]: 3.9 µM
- GI50 [2]: 3.36 µM
- TGI [2]: 16.5 µM
- GI50 [3]: 1.74 µM
- TGI [3]: 3.61 µM
- GI50 [4]: 3.19 µM
- TGI [4]: 11.9 µM
- GI50 [5]: 1.38 µM
- TGI [5]: 3.11 µM
- GI50 [6]: 4.08 µM
- TGI [6]: 20.3 µM
- GI50 [7]: 2.07 µM
- TGI [7]: 4.93 µM
- GI50 [8]: 2.32 µM
- TGI [8]: 5.23 µM
- GI50 [9]: 2.53 µM
- TGI [9]: 5.06 µM
- GI50 [10]: 3.37 µM
- TGI [10]: 15.9 µM
- GI50 [11]: 4.68 µM
- TGI [11]: 15.9 µM
- GI50 [56]: 1.49 µM
- TGI [56]: 2.81 µM
- GI50 [12]: 2.04 µM
- TGI [12]: 4.47 µM
- GI50 [13]: 2.76 µM
- TGI [13]: 7.83 µM
- GI50 [14]: 1.77 µM
- TGI [14]: 3.23 µM
- GI50 [15]: 11.7 µM
- TGI [15]: 26.9 µM
- GI50 [16]: 2.31 µM
- TGI [16]: 7.51 µM
- GI50 [17]: 1.93 µM
- TGI [17]: 3.5 µM
- GI50 [18]: 2.12 µM
- TGI [18]: 4.42 µM
- GI50 [19]: 2.11 µM
- TGI [19]: 4.48 µM
- GI50 [20]: 2.54 µM
- TGI [20]: 6.53 µM
- GI50 [21]: 1.63 µM
- TGI [21]: 3.01 µM
- GI50 [57]: 1.52 µM
- TGI [57]: 2.98 µM
- GI50 [58]: 1.83 µM
- TGI [58]: 3.95 µM
- GI50 [22]: 1.33 µM
- TGI [22]: 2.83 µM
- GI50 [23]: 1.63 µM
- TGI [23]: 4.18 µM
- GI50 [24]: 1.62 µM
- TGI [24]: 3.45 µM
- GI50 [25]: 2.52 µM
- TGI [25]: 7.1 µM
- GI50 [26]: 8.22 µM
- TGI [26]: 23.2 µM
- GI50 [27]: 1.65 µM
- TGI [27]: 3.59 µM
- GI50 [28]: 2.05 µM
- TGI [28]: 4.52 µM
- GI50 [29]: 1.99 µM
- TGI [29]: 4.32 µM
- GI50 [30]: 1.87 µM
- TGI [30]: 3.58 µM
- GI50 [31]: 1.92 µM
- TGI [31]: 3.58 µM
- GI50 [32]: 1.64 µM
- TGI [32]: 3.1 µM
- GI50 [33]: 4.17 µM
- TGI [33]: 14.7 µM
- GI50 [34]: 1.96 µM
- TGI [34]: 4.26 µM
- GI50 [35]: 2.14 µM
- TGI [35]: 5.65 µM
- GI50 [36]: 2.91 µM
- TGI [36]: 12.2 µM
- GI50 [37]: 1.89 µM
- TGI [37]: 3.72 µM
- GI50 [38]: 2.16 µM
- TGI [38]: 4.37 µM
- GI50 [39]: 7.02 µM
- TGI [39]: 30.6 µM
- GI50 [40]: 2.24 µM
- TGI [40]: 5 µM
- GI50 [41]: 2.87 µM
- TGI [41]: 6.81 µM
- GI50 [42]: 1.78 µM
- TGI [42]: 3.48 µM
- GI50 [44]: 7.07 µM
- TGI [44]: 19.1 µM
- GI50 [45]: 2.71 µM
- TGI [45]: 10.2 µM
- GI50 [46]: 2.08 µM
- TGI [46]: 5.14 µM
- GI50 [47]: 1.5 µM
- TGI [47]: 3.78 µM
- GI50 [48]: 2.11 µM
- TGI [48]: 5.14 µM
- GI50 [49]: 1.89 µM
- TGI [49]: 3.74 µM
- GI50 [50]: 2.23 µM
- TGI [50]: 6.17 µM
- GI50 [51]: 2.83 µM
- TGI [51]: 4.88 µM
- GI50 [52]: 1.81 µM
- TGI [52]: 3.5 µM
- GI50 [53]: 1.89 µM
- TGI [53]: 4.35 µM
- GI50 [54]: 2.5 µM
- TGI [54]: 8.06 µM
- GI50 [55]: 2.3 µM
- TGI [55]: 11 µM
